From ChEMBL document CHEMBL1148036, “Novel nematocidal agents from Curcuma comosa” (1994)
≈ marks a conversion by molar mass, not a printed value.

What follows are compounds tested on Caenorhabditis elegans (assay: Nematocidal against Caenorhabditis elegans N2 assessed as motility after 16 hrs). Conditions: N2, 16 h.
Type: functional

SMILES | EC95
O=C(CCc1ccccc1)C[C@@H](O)/C=C/c1ccccc1 | 1 µg/mL (≈ 3.57 µM)
OC(/C=C/C=C/c1ccccc1)CCc1ccccc1 (stereo not given) | > 100 µg/mL
O=C(CC/C=C/c1ccccc1)CCc1ccccc1 | 9 µg/mL (≈ 34 µM)
CC(=O)OC(CC/C=C/c1ccccc1)CCc1ccccc1 (stereo not given) | 9 µg/mL (≈ 29.2 µM)
OC(CC/C=C/c1ccccc1)CCc1ccccc1 (stereo not given) | 0.7 µg/mL (≈ 2.63 µM)
